PMC7241120 (2020)

System: Pu19m2 (DNA, G4) AAGGGAGGGCGGCGGGACA
Assay: thermal melting
Conditions: 50 mM K+; complex ~60 °C, free unimolecular vG4 ~45 °C

- Tm: ~ 15 °C
SMILES: Nc1nc2c(ncn2[C@H]2C[C@H](O)[C@@H](COP(=O)(O)O)O2)c(=O)[nH]1
